According to patent publication US4118561A, “7-(Substituted)-7H-pyrrolo[3,2-f]quinazoline-1,3-diamines” (priority 1977, dated 1978):
Values after ≈ are worked out from the molar mass of the structure shown. Like-named read-outs stand apart in the source and are kept apart here.

How the values were obtained:
S. aureus Smith = experiment: In vitro antibacterial activity (MIC), S. aureus Smith; conditions: Staphylococcus aureus, 18 h
P. vulgaris 6896 = experiment: In vitro antibacterial activity (MIC), P. vulgaris 6896; conditions: Proteus vulgaris, 6896, 18 h
S. aureus 53-180 = experiment: In vitro antibacterial activity (MIC), S. aureus 53-180; conditions: Staphylococcus aureus, 53180, 18 h
K. pneumoniae 10031 = experiment: In vitro antibacterial activity (MIC), K. pneumoniae 10031; conditions: Klebsiella pneumoniae, 10031, 18 h
N. catarrhalis 8193 = experiment: In vitro antibacterial activity (MIC), N. catarrhalis 8193; conditions: 18 h
[1] = Antimalarial blood schizonticidal test in mice; assay type: in vivo, Plasmodium berghei (infected ICR/HA Swiss mice); parameters: ΔMST (increase in mean survival time): unit: days; conditions: mouse, in vivo, sc, single dose, read-out: Highest Non-Lethal Dose
Description: (§1) In addition, the invention provides compounds which have antimalarial activity in vivo as evidenced by a standard blood schizonticidal test in mice infected with Plasmodium berghei KBG 173.
(§2) Utilizing young ICR/HA Swiss mice and a standard inoculum of Plasmodium berghei KBG 173, it is possible to produce a uniform disease fatal to 100% of untreated animals within 6 to 8 days with a mean survival time of 6.2 days. Test animals weigh from 18 to 22 grams but weight variations in any given experimental or control group are confined to 2-3 grams. All animals in any given test are approximately of the same age. Animals on test are housed in metal-topped plastic cages, given a standard laboratory diet and water ad libitum.
(§3) Test animals receive an intraperitoneal injection of 0.5 ml. of 1:100 dilution of heparinized heart's blood with a minimum of 90% parasitized cells (4 × 10^7 cells), drawn from donor mice infected one week earlier with Plasmodium berghei. The donor strain is maintained by weekly passages in separate groups of mice inoculated with a 0.5 ml. of 1:500 dilution of heparinized heart's blood.
(§4) Test compounds are administered after dissolution or suspension in peanut oil. A single dose is given subcutaneously 72 hours after the mice are infected with Plasmodium berghei. At this time a 10-15 percent parasitemia has developed; the disease is well established but has not produced sufficient debility to alter the response of the host to toxic effects of the drug on test. Since treatment is withheld for three days to permit the infection to become well established and death occurs in untreated controls within 6-8 days, it is felt that this system presents a candidate compound with the maximum challenge. In order to check factors such as changes in the infectivity of Plasmodium berghei or in the susceptibility of the host or to detect technical errors, a group of infected animals treated with pyrimethamine at dose levels producing definite increases in survival time is included in a positive control in every experiment.
(§5) In each experiment test compounds are administered in graded dosages. […] However, if an active drug is toxic for the host, its toxicity may become a limiting factor; continued increases in dose levels also increase the toxic effects and may result in the diminution of survival times. Deaths prior to the sixth day, when untreated controls begin to die, are regarded as nonparasitic and become the basis for toxicity evaluations. […] In calculating mean survival time, toxic deaths and 60-day survivors are not included.
(§6) Compounds are considered active which produce a cure in at least one test animal or which produce significant increases in mean survival times of the treated animals as compared with the mean survival times of untreated controls, provided that no drug related deaths (toxicity) are noted at the active dose.

[2] = test system: Plasmodium berghei KBG 173; experiment: Antimalarial blood schizonticidal test in mice; assay type: in vivo, Plasmodium berghei (infected ICR/HA Swiss mice); parameters: ΔMST (increase in mean survival time): unit: days; conditions: for ED100 / minimal effective dose: Plasmodium berghei, sc; for ED100: read-out: Lowest Dose Curing All Mice; for minimal effective dose: read-out: Min. Curing Dose; for Cure/Treat at Min. Curing Dose: at the Min. Curing Dose
Description: as §1, §2, §3, §4, §5, §6

E. coli 9637 = experiment: In vitro antibacterial activity (MIC), E. coli 9637; conditions: Escherichia coli, 9637, 18 h
S. paratyphi 11737 = experiment: In vitro antibacterial activity (MIC), S. paratyphi 11737; assay type: cell-based; conditions: Salmonella enterica, 18 h
[3] = test system: lymphocytic leukemia P-388; experiment: Activity in mice against lymphocytic leukemia P-388; assay type: in vivo; conditions: Mus musculus, P388, ip, read-out: T/C
[4] = infected mice, highest dose with no deaths for any reason
[5] = 336 h, s.c., single dose, alive on day 14 considered cured, no 60-day data
[6] = 1440 h, s.c., single dose, 60-day survivors

Row | SMILES | MIC (S. aureus Smith) [µg/mL] | MIC (P. vulgaris 6896) [µg/mL] | MIC (S. aureus 53-180) [µg/mL] | MIC (K. pneumoniae 10031) [µg/mL] | MIC (N. catarrhalis 8193) [µg/mL] | MTD [1, 4] [mg/kg] | Cure/Treat at Min. Curing Dose ([2]; s.c., 60-day survivors) | MIC (E. coli 9637) [µg/mL] | MIC (S. paratyphi 11737) [µg/mL] | ED100 [2, 6] [mg/kg] | minimal effective dose [2, 6] [mg/kg] | ΔMST (increase in mean survival time) ([2]; s.c., dose 2.5 mg. per kg.) | also measured
1 | COc1cc(Cn2ccc3c4c(N)nc(N)nc4ccc32)cc(OC)c1OC [Example 39] | 0.122 (≈ 0.322 µM) | 7.81 (≈ 20.6 µM) | 0.061 (≈ 0.161 µM) | 0.122 (≈ 0.322 µM) | 0.0152 (≈ 0.0401 µM) | 160 | 2/5 | 0.976 (≈ 2.57 µM) | 3.9 (≈ 10.3 µM) |  |  |  | ED100 ([2]; 1440 h): 160 mg/kg; minimal effective dose ([2]; 1440 h): 40 mg/kg; ΔMST (increase in mean survival time) ([2]; s.c., dose 20 mg. per kg.): 7.1; response vs control in vivo at 10 mg/kg [3]: 163%
2 | Nc1nc(N)c2c(ccc3c2ccn3Cc2ccsc2)n1 [Example 41] | 0.976 (≈ 3.3 µM) | 1.95 (≈ 6.6 µM) | 0.976 (≈ 3.3 µM) | 0.061 (≈ 0.207 µM) | 0.0152 (≈ 0.0515 µM) |  |  | 0.244 (≈ 0.826 µM) | 0.976 (≈ 3.3 µM) |  |  |  | MTD ([1]; alive on day 14 considered cured, no 60-day data): 320 mg/kg; ED100 [2, 5]: 160 mg/kg; minimal effective dose [2, 5]: 20 mg/kg; Cure/Treat at Min. Curing Dose ([2]; s.c., alive on day 14 considered cured): 3/5; response vs control in vivo at 10 mg/kg ([3]; mice, I.P., 10 mg/kg): 147%
3 | COc1ccc(Cn2ccc3c4c(N)nc(N)nc4ccc32)cc1OC [Example 37] | 0.244 (≈ 0.698 µM) | 1.95 (≈ 5.58 µM) | 0.122 (≈ 0.349 µM) | 0.061 (≈ 0.175 µM) | 0.0152 (≈ 0.0435 µM) | 80 | 1/5 | 0.488 (≈ 1.4 µM) | 1.95 (≈ 5.58 µM) | 20 | 10 | 6.9 | response vs control in vivo at 10 mg/kg ([3]; mice, I.P., 10 mg/kg): 174%
4 | Nc1nc(N)c2c(ccc3c2ccn3Cc2ccncc2)n1 [Example 45] | 0.122 (≈ 0.42 µM) | 0.488 (≈ 1.68 µM) | 0.122 (≈ 0.42 µM) | 0.122 (≈ 0.42 µM) | 0.0038 (≈ 0.0131 µM) |  | 3/5 | 0.244 (≈ 0.84 µM) | 0.488 (≈ 1.68 µM) |  | 80 |  | ΔMST (increase in mean survival time) ([2]; s.c., dose 40 mg. per kg.): 9.7; response vs control in vivo at 15 mg/kg ([3]; mice, I.P., 15 mg/kg): 142%
5 | CS(=O)(=O)c1ccc(Cn2ccc3c4c(N)nc(N)nc4ccc32)cc1 [Example 63, 7-[(4-Methylsulfonylphenyl)methyl]-7H-pyrrolo[3,2-f]quinazoline-1,3-diamine] | 0.122 (≈ 0.332 µM) | 7.81 (≈ 21.3 µM) | 0.122 (≈ 0.332 µM) | 0.122 (≈ 0.332 µM) | 0.0152 (≈ 0.0414 µM) |  | 1/5 | 0.976 (≈ 2.66 µM) | 0.976 (≈ 2.66 µM) |  | 10 |  | ΔMST (increase in mean survival time) ([2]; s.c., dose 5 mg. per kg.): 6.5; response vs control in vivo at 10 mg/kg ([3]; mice, I.P., 10 mg/kg): 136%
6 | Nc1nc(N)c2c(ccc3c2ccn3Cc2cccc([N+](=O)[O-])c2)n1 [Example 18, 7-[(3-nitrophenyl)methyl]-7H-pyrrolo[3,2-f]quinazoline-1,3-diamine] | 0.122 (≈ 0.365 µM) | 3.9 (≈ 11.7 µM) | 0.061 (≈ 0.182 µM) | 0.122 (≈ 0.365 µM) | 0.0152 (≈ 0.0455 µM) | 40 | 3/5 | 0.488 (≈ 1.46 µM) | 0.976 (≈ 2.92 µM) | 10 | 2.5 | 7.4 | response vs control in vivo at 5 mg/kg ([3]; mice, I.P.): 163%
7 | CCOC(=O)c1ccc(Cn2ccc3c4c(N)nc(N)nc4ccc32)cc1 [Example 17] | 1.95 (≈ 5.4 µM) | > 250 | 1.95 (≈ 5.4 µM) | 1.95 (≈ 5.4 µM) | 0.488 (≈ 1.35 µM) | 80 | 1/5 | 7.81 (≈ 21.6 µM) | > 250 | 20 | 10 | 6.0 | response vs control in vivo at 10 mg/kg ([3]; mice, I.P., 10 mg/kg): 141%
8 | Cc1ccc(Cn2ccc3c4c(N)nc(N)nc4ccc32)cc1 [Example 21] | 0.976 (≈ 3.22 µM) | 1.95 (≈ 6.43 µM) | 0.488 (≈ 1.61 µM) | 0.122 (≈ 0.402 µM) | 0.0152 (≈ 0.0501 µM) | 160 | 2/5 | 0.976 (≈ 3.22 µM) | 1.95 (≈ 6.43 µM) | 20 | 10 |  | ΔMST (increase in mean survival time) ([2]; s.c., dose 5 mg. per kg.): 7.5; response vs control in vivo at 10 mg/kg [3]: 138%
9 | Nc1nc(N)c2c(ccc3c2ccn3Cc2ccc3ccccc3c2)n1 [Example 48] | 125 (≈ 368 µM) | > 250 | 125 (≈ 368 µM) | 7.81 (≈ 23 µM) | 0.244 (≈ 0.719 µM) | 1160 | 4/5 | 250 (≈ 737 µM) | > 250 | 40 | 20 |  | ΔMST (increase in mean survival time) ([2]; s.c., dose 5 mg. per kg.): 7.3
10 | Nc1nc(N)c2c(ccc3c2ccn3Cc2ccc(OC(F)(F)F)cc2)n1 [Example 64, 7-[(4-Trifluoromethoxyphenyl)methyl]-7H-pyrrolo[3,2-f]quinazoline-1,3-diamine] | 0.976 (≈ 2.61 µM) | 62.5 (≈ 167 µM) | 0.244 (≈ 0.654 µM) | 0.122 (≈ 0.327 µM) | 0.031 (≈ 0.083 µM) | 10 | 2/5 | 3.9 (≈ 10.4 µM) | 62.5 (≈ 167 µM) | 10 | 2.5 |  | ΔMST (increase in mean survival time) ([2]; s.c., dose 1.25 mg. per kg.): 9.6
11 | Nc1nc(N)c2c(ccc3c2ccn3Cc2ccccc2F)n1 [Example 3] | 0.488 (≈ 1.59 µM) | 0.976 (≈ 3.18 µM) | 0.244 (≈ 0.794 µM) | 0.122 (≈ 0.397 µM) | 0.0152 (≈ 0.0495 µM) | 80 | 3/5 | 0.488 (≈ 1.59 µM) | 0.976 (≈ 3.18 µM) | 80 | 10 |  | ΔMST (increase in mean survival time) ([2]; s.c., dose 5 mg. per kg.): 9.8
12 | CC(C)(C)c1ccc(Cn2ccc3c4c(N)nc(N)nc4ccc32)cc1 [Example 30] | 7.81 (≈ 22.6 µM) | > 250 | 3.9 (≈ 11.3 µM) | 3.9 (≈ 11.3 µM) | 0.976 (≈ 2.83 µM) |  |  | 250 (≈ 724 µM) | > 250 |  |  |  | response vs control in vivo at 5 mg/kg ([3]; mice, I.P.): 125%
13 | Nc1nc(N)c2c(ccc3c2ccn3Cc2ccc(Cl)c(Cl)c2)n1 [Example 10] | 0.976 (≈ 2.72 µM) | 31.3 (≈ 87.4 µM) | 0.488 (≈ 1.36 µM) | 0.488 (≈ 1.36 µM) | 0.061 (≈ 0.17 µM) | 40 | 2/5 | 3.9 (≈ 10.9 µM) | 31.3 (≈ 87.4 µM) | 10 | 2.5 | 10.2 | 
14 | Cc1cc(C)c(Cn2ccc3c4c(N)nc(N)nc4ccc32)c(C)c1 [Example 27] | 250 (≈ 754 µM) | > 250 | 250 (≈ 754 µM) | 31.3 (≈ 94.4 µM) | 0.244 (≈ 0.736 µM) | 80 | 3/5 | > 250 | > 250 | 40 | 5 | 7.3 | 
